This assay concerns the target T1, AKT2 (PKB beta) (Homo sapiens, UniProt P31751).
T1 construct: purchased Thermo Fisher Scientific (Life Technologies) SelectScreen
The assay is described as follows: SelectScreen Z'LYTE. The format is biochemical. A digest of the protocol: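 NU5455 was profiled across the SelectScreen Broad panel of kinase activity and binding assays. Z'LYTE reactions such as CSF1R ran at apparent Km ATP, while the Adapta CAMK1 assay used ATP listed as 10. Values are given as percent.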

By inhibition is commonly meant the share of the control response that was lost under treatment.

T1 sequence (P31751 whole entry): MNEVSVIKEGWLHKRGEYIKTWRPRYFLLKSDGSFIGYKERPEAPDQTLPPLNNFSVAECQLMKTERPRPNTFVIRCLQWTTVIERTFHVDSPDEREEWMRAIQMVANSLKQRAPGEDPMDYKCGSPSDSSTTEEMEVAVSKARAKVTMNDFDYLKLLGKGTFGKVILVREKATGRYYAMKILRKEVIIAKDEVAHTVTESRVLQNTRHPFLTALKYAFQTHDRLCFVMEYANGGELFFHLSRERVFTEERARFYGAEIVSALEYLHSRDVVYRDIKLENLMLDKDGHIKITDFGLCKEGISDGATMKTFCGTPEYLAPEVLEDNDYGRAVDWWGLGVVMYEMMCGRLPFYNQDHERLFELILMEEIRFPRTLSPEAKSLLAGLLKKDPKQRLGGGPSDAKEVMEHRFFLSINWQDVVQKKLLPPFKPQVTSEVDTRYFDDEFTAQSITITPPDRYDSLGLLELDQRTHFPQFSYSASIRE

In the case of `CN(C(=O)CN1CCOCC1)c1ccc2sc3c(-c4cccc5c(=O)cc(N6CC7CCC(C6)O7)oc45)cccc3c2c1` [NU5455], testing at 1 µM gave an inhibition of 0%.

The record behind these values is article PMC6934184, “Selective DNA-PKcs inhibition extends the therapeutic index of localized radiotherapy and chemotherapy” (The Journal of Clinical Investigation, 2019).
